From patent US6933315B2, “Derivatives of isoindigo, indigo and indirubin and methods of treating cancer” (priority 2001, dated 2005)
Like-named read-outs stand apart in the source and are kept apart here.

Experiments:
Solubility description = assay type: physicochemical
protein kinase C (PKC) = assay: PKC activity from treated LNCaP cells; assay type: cell-based, Human; details: as high as 15 μM, 24 hrs
Description: (§1) Assay for cyclin dependent kinase activity: HUVEC and LNCaP cells were cultured in EMB (endothelial cell basal medium) and RPMI 1640 containing 10% FBS, respectively. The cells grown exponentially were exposed to indicated concentrations of meisoindigo or NATURA for 24 hr. The cells were harvested, washed, and total proteins extracted as described previously. One hundred μg of the proteins were immuno-precipitated using antibodies against cdk2, cdk4/6, PKC, ERK2 or cyclin D1 overnight at 4° C. in the presence of a cocktail of protease inhibitors. […] The phosphorylated histone H1 (represent cdk activity) was measured by scintillation counting or by SDS-polyacrylaimde gel electrophoresis. The direct inhibitory effects of Meisoindigo and NATURA were also measured by reaction of immuno-purified specific enzyme from untreated cells directly with the Meisoindigo or NATURA. […]
(§2) LNCaP cells at exponential growth phase were exposed to different concentrations of NATURA (panel A & B) for 24 hrs, or to PD98059 (panel C) for 15 min. […] Upper panels are the imagines of x-ray films from SDS-PAGE, and lower panels represent the densities of each band from the films determined by an Imagine Densitometer from the same films (expressed as the percent of control).

[1] = system: extracellular signal-regulated protein kinase 2 (ERK2); assay: ERK2 activity from treated LNCaP cells; assay type: cell-based, Human; details: as high as 15 μM, 24 hrs
Description: as §1, §2

[2] = target: T1, immuno-purified cdk2 from LNCaP cells (Homo sapiens, UniProt P24941); assay: Direct inhibition of immuno-purified cdk2 activity in vitro; assay type: biochemical
T1 construct: Two hundred mg of total protein extracts were immuno-precipitated with cdk2 antibody overnight at 4° C
Description: (§3) Assay for cyclin dependent kinase activity: HUVEC and LNCaP cells were cultured in EMB (endothelial cell basal medium) and RPMI 1640 containing 10% FBS, respectively. The cells grown exponentially were exposed to indicated concentrations of meisoindigo or NATURA for 24 hr. The cells were harvested, washed, and total proteins extracted as described previously. One hundred μg of the proteins were immuno-precipitated using antibodies against cdk2, cdk4/6, PKC, ERK2 or cyclin D1 overnight at 4° C. in the presence of a cocktail of protease inhibitors. The immuno-precipitates were washed 4 times with protein extraction buffer and once with kinase assay buffer, and reacted with 75 μg/ml histone H1 in the presence of [γ-^32P]-ATP (2.5 μCi/10 μM). The phosphorylated histone H1 (represent cdk activity) was measured by scintillation counting or by SDS-polyacrylaimde gel electrophoresis. The direct inhibitory effects of Meisoindigo and NATURA were also measured by reaction of immuno-purified specific enzyme from untreated cells directly with the Meisoindigo or NATURA.
When immuno-purified cdk2 from LNCaP cells was reacted with histone H1 in the presence of different concentrations of NATURA-β and γ-[^32P]-ATP (2.5 μCi/[…]), the enzyme activity was decreased in a concentration-dependent manner.
Two hundred mg of total protein extracts were immuno-precipitated with cdk2 antibody overnight at 4° C. After 4 washes with PBSTDS, and once with kinase assay buffer, the immuno-purified enzyme was then reacted for 10 min with 10 mg of histone H1 in the presence of different concentrations of NATURA or 50 mM of genistein (as a positive control) and γ-[^32P]-ATP (2.5 mCi/10 mM). The phosphorylated histone H1 (reflecting cdk2 activity) was detected either by SDS-PAGE (upper panel), or radioactive scintillation counting (lower panel, after eliminating free γ-[^32P]-ATP).

cdk2 = cdk2 activity immuno-precipitated from treated LNCaP cells; assay type: cell-based, Human; details: 24 hours incubation with LNCaP cells
Description: as §3
LNCaP cells grown exponentially were exposed to different concentrations of NATURA for 24 hrs. […] The upper panels (A & B) are imagines of the films from SDS-PAGE, and lower panels represent the density measured by an Imagine Densitometer from the same films (expressed as percent of control).

Lewis Lung Cancer = assay: Anticancer activity in Lewis lung carcinoma animal model; assay type: in vivo, C57 mice; details: mice, oral, Indirubin 100 × 9, Meisoindigo 106 × 9 mg/kgxd
Description: Briefly, C57 mice, body weight between 18 to 22 grams, and rat, body weight between 50 to 55 grams, were randomly divided into several groups, ten of each, respectively. Approximately 2×10^6 of Lewis cancer cells or Walker sarcoma cells were transplanted into mice or rat. […] The animals in the control group were given 0.1 ml saline (drug vehicle, negative control) for the same periods of time as treated group. The animals at end of the treatment were sacrificed and tumors were removed and weighed.

[3] = design: species or system dogs; details: dog, in vivo
Description: Two dogs were initially tested for sub-acute toxicity of Meisoindigo. They were orally given 10 mg/kg daily for 3 months.
Since no major toxicities were found during the initial study, an additional 3 dogs were tested by orally giving them a higher dose (20 mg/kg). Among them, one dog was given 20 mg/kg for 46 days, and another 2 dogs given for 2 months. […] However, all of those symptoms disappeared after the termination of the treatment of Meisoindigo.

[4] = system: TA97, TA98, TA100 and TA102; assay: Reverse mutation, Ames test; assay type: cell-based, salmonella typhimurium; details: +S9 and −S9, Meisoindigo 2, 20, 50, 100 and 200 μg/dish
Description: Meisoindigo at concentrations of 2, 20, 50, 100 and 200 μg/dish (10 cm), metabolically activated (+S9) and inactivated (−S9), were tested in strains of TA97, TA98, TA100 and TA102 (amino acid deficit salmonella typhimurium) respectively. Daunomycin, 2-aminofluorene (2AF), methylmethanesulfonate (MMS), 2,7-2AF, and 2-hydroxy-anthraquinone were used as positive controls.

Chronic toxicity in dogs = assay type: in vivo
Description: On the basis of above initial tests, the sub-acute toxicities of Meisoindigo were further examined in dogs. Twelve dogs were randomly divided into 3 groups each having equal numbers of males and females, and orally given Meisoindigo at doses of 0, 5, and 10 mg/kg daily, respectively, for 6 months. […] All parameters tested, in all animals, including controls fluctuated within normal ranges.
Twenty-four hours after the termination of Meisoindigo, half of the animal of each group were sacrificed, and dissected for pathological examination.

[5] = oral, 5 and 10 mg/kg daily for 6 months

Row | Structure (SMILES) | solubility in dimethyl sulfoxide (DMSO) (Solubility description) | solubility in ethanol, acetone, chloroform (Solubility description) | solubility in water (Solubility description) | effect on PKC activity (protein kinase C (PKC)) | effect on ERK2 activity [1] | inhibition at 10 µM ([2]; 10 μM compound, ATP concentration as high as 100 μM, read-out: inhibitory effect on immuno-purified cdk2, ATP competing assay) | IC50 ([2]; immuno-purified cdk2, histone H1, γ-[32P]-ATP 2.5 μCi/20 μM) | inhibition of cdk2 enzyme activity (cdk2; 5.0 μM) | inhibition of cdk2 enzyme activity (cdk2; 15 μM) | Inhibition (%) (Lewis Lung Cancer) | Tumor Size X ± SD (Lewis Lung Cancer) | histochemical examinations [3] | biochemical changes of blood, liver, and kidney ([3]; po, 10 mg/kg) | clinical observations ([3]; po, 10 mg/kg) | clinical observations ([3]; po, 20 mg/kg) | tested parameters ([3]; po, 20 mg/kg) | reverse mutations (Ames test) [4] | pathological examination of heart, liver, lung, kidney, stomach, gastro intestine, testis, ovary, lymph node (Chronic toxicity in dogs; 24 hours after termination of 6 months dosing) | clinical observations (Chronic toxicity in dogs; [5]) | hemogram, functions of liver (SGPT), kidney (BUN) and heart (ECG) vs control (Chronic toxicity in dogs; [5])
1 | CC(=O)OC1COC(N2C(=O)/C(=C3/C(=O)Nc4ccccc43)c3ccccc32)C(OC(C)=O)C1OC(C)=O [NATURA, 1-(β-D-O-Triacetyl-xylopyranosyl)-isoindigo] | soluble | slightly dissolves | rarely dissolves | No inhibitory effect | No inhibitory effect | > 50% | 1600 ± 200 nM | approximately 46% | ~92% | – | – | – | – | – | – | – | – | – | – | –
2 | CN1C(=O)/C(=C2/C(=O)Nc3ccccc32)c2ccccc21 [Meisoindigo] | – | – | – | – | – | – | – | – | – | 48.6 ± 4.1% | 1.80 ± 0.15 | cellular edema, fatty degeneration, and scatter hyperplasia inflammation in liver tissues | No biochemical changes | Minor gastro intestinal irritations were observed occasionally | intestinal irritations at various degrees | No abnormalities | No induction of reverse mutations | No abnormalities | minor gastro-intestinal irritations | No significant differences
